In brackets after ≈: the same amount, converted by molar mass. Read-outs that look alike come from different tables or passages of the source.
Legend:
[1] = test system: influenza virus-A2 /Kumamoto; format: in vivo, mice
[2] = Solubility; format: physicochemical
[3] = test system: Trychophyton rubrum; experiment: microbe, parasite or virus in culture; format: cell-based; details: read-out: Minimum inhibitory concentration
[4] = Serum concentration after intravenous injection in mice; details: mouse
[5] = Toxicity in mice, repeated intravenous administration; format: in vivo; details: 20 mg/kg per day intravenous, once daily for 10 days (total 200 mg/kg)
[6] = test system: Candida utilis IFO 0396; experiment: microbe, parasite or virus in culture; format: cell-based; details: Williopsis jadinii, IFO0396; read-out: Minimum inhibitory concentration
[7] = test system: bacteria; format: cell-based
[8] = test system: yeasts; format: cell-based
[9] = test system: Staphylococcus aureus 209P; experiment: microbe, parasite or virus in culture; format: cell-based; details: read-out: Minimum inhibitory concentration
[10] = test system: poliovirus; format: cell-based
[11] = test system: mycoplasma; format: cell-based
[12] = test system: Mycoplasma pneumoniae; experiment: microbe, parasite or virus in culture; format: cell-based; details: read-out: Minimum inhibitory concentration
[13] = test system: Candida tropicalis; experiment: microbe, parasite or virus in culture; format: cell-based; details: read-out: Minimum inhibitory concentration
[14] = Cytotoxicity, tube dilution method; format: cell-based; details: read-out: Minimum Inhibitory Concentration, tube dilution method
Description: (§1) A solution containing Antibiotic TS-885 was prepared as follows to determine the biological activity of Antibiotic TS-885. A 100 mg amount of 3-(5,7-dimethyl-2-hydroxy-4-oxo-6,8-decadienyl)-glutarimide (Antibiotic TS-885) was dissolved in a mixture of 0.6 ml of dimethyl-sulfoxide and 0.02 ml of polyoxyethylene sorbitane monolaurate (EO : 20). A 1.0 ml amount of a stirred saline solution (0.01 M phosphate buffered saline, pH 7.2) was added to the mixture to form a uniform solution which was followed by the addition of 48 ml of the saline solution. By this procedure a stock solution of Antibiotic TS-885 having a concentration of 2 mg/ml was prepared. The stock solution was diluted with the buffer solution for the following tests.
(§2) The cytotoxicity of Antibiotic TS-885 against various tissue culture cells was observed by the following two methods:
b. a tube dilution method
(§3) After 24 hours, the medium was removed and the plates were overlaid with 5 ml of an agar medium and one cylinder was placed on the medium. A 0.25 ml amount of a test sample was placed in the cylinder. After maintaining the plates for 2 hours at room temperature to diffuse Antibiotic TS-885 into the agar, the plate was incubated in the CO2 incubator at 37° C. After 48 hours, the cytotoxic effect of Antibiotic TS-885 was determined by the size of the diameter of the growth inhibitory zone around the cylinder. (2) In the tube dilution method, 2 × 10^5 cells were inoculated into a small test tube, and the tubes were incubated at 37° C for 24 hours. Solutions containing various concentrations of Antibiotic TS-885 were added to tubes of the cells and reincubated at […]. After 48 hours, the degenerated cells were microscopically observed.

[15] = test system: Cryptococcus albidus IFO 0378; experiment: Antimicrobial activity (Table III); format: cell-based; details: Naganishia albida, IFO0378; Malt Agar (M.A.); read-out: Minimum inhibitory concentration
Description: as §1
(§4) The antimicrobial spectra were observed by the pulp disc diffusion method and the agar streak method, and the results are shown in Tables II and III.

[16] = test system: Phodotorula glutinis IFO 0754; experiment: Antimicrobial activity (Table III); format: cell-based; details: Malt Agar (M.A.); read-out: Minimum inhibitory concentration
Description: as §1, §4

[17] = test system: Saccharomyces rosei AHU 3174; experiment: Antimicrobial activity (Table III); format: cell-based; details: Torulaspora delbrueckii, AHU3174; Malt Agar (M.A.); read-out: Minimum inhibitory concentration
Description: as §1, §4

[18] = test system: Hansenula anomala IFO 0118; experiment: Antimicrobial activity (Table III); format: cell-based; details: IFO0118, Malt Agar (M.A.), read-out: Minimum inhibitory concentration
Description: as §1, §4

[19] = test system: Candida alibicans; experiment: Antimicrobial activity (Table III); format: cell-based; details: Sabouraud's agar (S.A.), read-out: Minimum inhibitory concentration
Description: as §1, §4

[20] = test system: Saccharomyces fragilis IAM 7160; experiment: Antimicrobial activity (Table III); format: cell-based; details: IAM7160, Malt Agar (M.A.), read-out: Minimum inhibitory concentration
Description: as §1, §4

[21] = test system: Saccharomyces sake HUT 7119; experiment: Antimicrobial activity (Table III); format: cell-based; details: HUT7119, Malt Agar (M.A.), read-out: Minimum inhibitory concentration
Description: as §1, §4

[22] = test system: Brettanomyces anomalus IFO 0648; experiment: Antimicrobial activity (Table III); format: cell-based; details: IFO0648, Malt Agar (M.A.), read-out: Minimum inhibitory concentration
Description: as §1, §4

[23] = test system: Torula rubra var alpa; experiment: Antimicrobial activity (Table III); format: cell-based; details: Malt Agar (M.A.), read-out: Minimum inhibitory concentration
Description: as §1, §4

[24] = test system: R. rubra IFO 0001; experiment: Antimicrobial activity (Table III); format: cell-based; details: Malt Agar (M.A.); read-out: Minimum inhibitory concentration
Description: as §1, §4

[25] = test system: mouse ascites tumor cells (Sarcoma 180); experiment: Antitumor effect in mice; format: in vivo; details: intraperitoneally, once daily for six days
Description: 1,000,000 mouse ascites tumor cells (Sarcoma 180) were transplanted intraperitoneally into mice. 24 Hours after the mice were treated with the transplanted tumor cells, the mice were injected with various doses of the antibiotic once daily for six days intraperitoneally. […] It is that the life span of the antibiotic treated mice was prolonged.

[26] = test system: poliovirus; experiment: microbe, parasite or virus in culture; format: cell-based
[27] = Cytotoxicity, cylinder method; format: cell-based; details: read-out: Minimum Inhibitory Concentration, cylinder method
Description: as §1, §2
a. a cylinder method (on a thin seed plate)
a. A 10 ml amount of a cell suspension (3 × 10^5 cells/ml) was seeded in a petri dish having a diameter of 90 mm. The plates were incubated in a CO2 incubator at 37° C.
as §3

[28] = test system: Vesicular stomatitis virus; experiment: microbe, parasite or virus in culture; format: cell-based
[29] = test system: Candida parapsiiosis IFO 0708; experiment: microbe, parasite or virus in culture; format: cell-based; details: IFO0708, read-out: Minimum inhibitory concentration
[30] = cited from earlier work
[31] = chicken, chick embryo fibroblast cells, MEM medium
[32] = human, hela s3 cells, YLE medium
[33] = monkey, monkey kidney cells, MEM medium
[34] = Enterovirus C, read-out: Diameter of plaque free zone
[35] = Vesicular stomatitis virus, in Gallus gallus, read-out: Diameter of plaque free zone

## NC12CC3CC(CC(C3)C1)C2 [Amantadine, 1,Adamantylamine, reference compound]
[1]; 20 mg/kg, survival day 7
  Survival / treated × 100 %: 100%
[1]; 20 mg/kg, survival day 10
  Survival / treated × 100 %: 60%
[1]; 20 mg/kg, survival day 13
  Survival / treated × 100 %: 10%
[1]; 20 mg/kg, survival day 15
  Survival / treated × 100 %: 0%
[1]; 20 mg/kg, survival day 20
  Survival / treated × 100 %: 0%

## CC=CC(C)=CC(C)C(=O)CC(O)CC1CC(=O)NC(=O)C1 (stereo not shown) [Antibiotic TS-885, 3-(5,7-dimethyl-2-hydroxy-4-oxo-6,8-decadienyl)-glutarimide]
[2]; acetone, chloroform, benzene, ethylacetate, ethanol, methanol, 1% aqueous sodium hydroxide solution, and pyridine
  Solubility: Soluble
[2]; benzene, ethyl acetate, acetone, ethanol 1% NaOH
  Solubility: Soluble
[2]; ether
  Solubility: Sparingly soluble
[2]; water
  Solubility: water insoluble
[2]; water and 5% aqueous hydrochloric acid
  Solubility: Insoluble
[3]
  MIC: 1000 µg/mL (≈ 3250 µM)
[4]; 2.5 mg/kg
  concentration at 10 min: 1800 ng/mL
  concentration at 0.5 h: 580 ng/mL
[4]; 25 mg/kg
  concentration at 10 min: 2900 ng/mL
  concentration at 0.5 h: 2400 ng/mL
[5]
  signs of toxicity: No signs of toxicity were observed
[6]
  MIC: 100 µg/mL (≈ 325 µM)
[7]
  antibacterial activity: no antibacterial
[8]
  inhibitory activity against some yeasts: inhibitory activity against some yeasts
[9]
  MIC: > 1000 µg/mL
[1]; 7 mg/kg intraperitoneally, survival day 7
  Survival / treated × 100 %: 100%
[1]; 7 mg/kg intraperitoneally, survival day 10
  Survival / treated × 100 %: 60%
[1]; 7 mg/kg intraperitoneally, survival day 13
  Survival / treated × 100 %: 35%
[1]; 7 mg/kg intraperitoneally, survival day 15
  Survival / treated × 100 %: 35%
[1]; 7 mg/kg intraperitoneally, survival day 20
  Survival / treated × 100 %: 35%
[1]; 22 mg/kg intraperitoneally, survival day 7
  Survival / treated × 100 %: 100%
[1]; 22 mg/kg intraperitoneally, survival day 10
  Survival / treated × 100 %: 80%
[1]; 22 mg/kg intraperitoneally, survival day 13
  Survival / treated × 100 %: 50%
[1]; 22 mg/kg intraperitoneally, survival day 15
  Survival / treated × 100 %: 50%
[1]; 22 mg/kg intraperitoneally, survival day 20
  Survival / treated × 100 %: 50%
[1]; 22 mg/kg, day not stated (footnote to Table VIII)
  survival rate: 50%
[10]; 0.5 mcg/ml
  Antiviral effect: Toxic
[10]; 1 mcg/ml
  Antiviral effect: Toxic
[10]; 10 mcg/ml
  Antiviral effect: Toxic
[11]
  antimycoplasmal activity: no antibacterial and antimycoplasmal activity
[12]
  MIC: > 1000 µg/mL
[13]
  MIC: 100 µg/mL (≈ 325 µM)
[14]; [31]
  MCC at 48 h: 1 µg/mL
[14]; [32]
  MCC at 48 h: 0.4 µg/mL
[14]; human, p3 hr-1 cells, MEM medium
  MCC at 48 h: 0.4 µg/mL
[14]; [33]
  MCC at 48 h: 0.4 µg/mL
[14]; mouse, l-cells, YLE medium
  MCC at 48 h: 0.5 µg/mL
[15]
  MIC: 4 µg/mL (≈ 13 µM)
[16]
  MIC: 100 µg/mL (≈ 325 µM)
[17]
  MIC: 100 µg/mL (≈ 325 µM)
[18]
  MIC: 20 µg/mL (≈ 65.1 µM)
[19]
  MIC: > 100 µg/mL
[20]
  MIC: 20 µg/mL (≈ 65.1 µM)
[21]
  MIC: 4 µg/mL (≈ 13 µM)
[22]
  MIC: > 100 µg/mL
[23]
  MIC: 4 µg/mL (≈ 13 µM)
[24]
  MIC: 20 µg/mL (≈ 65.1 µM)
[25]; 2.5 mg/mouse per day
  growth of the ascites tumor: inhibits growth of the ascites tumor
[25]
  life span of the antibiotic treated mice: prolonged
[26]; 12.5 mcg/ml
  Antiviral effect: toxic
[26]; 25 mcg/ml
  Antiviral effect: toxic
[26]; [34]
  zone of inhibition at 0.5 µg/mL: 15 mm
  zone of inhibition at 1 µg/mL: 19.4 mm
  zone of inhibition at 5 µg/mL: 25 mm
  zone of inhibition at 6.25 µg/mL: 28.4 mm
  zone of inhibition at 12.5 µg/mL: 29.2 mm
  zone of inhibition at 25 µg/mL: 36 mm
[27]; [31]
  MCC at 48 h: 0.5 µg/mL
[27]; [32]
  MCC at 48 h: 0.2 µg/mL
[27]; [33]
  MCC at 48 h: 0.2 µg/mL
[27]; mouse, l-cells, YLE medium
  MCC at 48 h: 0.25 µg/mL
[28]; 20 mcg/ml
  Antiviral effect: toxic
[28]; 62.5 mcg/ml
  Antiviral effect: toxic
[28]; 100 mcg/ml
  Antiviral effect: toxic
[28]; 125 mcg/ml
  Antiviral effect: toxic
[28]; 250 mcg/ml
  Antiviral effect: toxic
[28]; [35]
  zone of inhibition at 0.3 µg/mL: 15.4 mm
  zone of inhibition at 0.6 µg/mL: 17.4 mm
  zone of inhibition at 1.25 µg/mL: 18.1 mm
  zone of inhibition at 2.5 µg/mL: 18.9 mm
  zone of inhibition at 5 µg/mL: 19.6 mm
  zone of inhibition at 10 µg/mL: 22.9 mm
  zone of inhibition at 20 µg/mL: 26.2 mm
  zone of inhibition at 62.5 µg/mL: 28.8 mm
  zone of inhibition at 100 µg/mL: 31.7 mm
  zone of inhibition at 125 µg/mL: 33.2 mm
  zone of inhibition at 250 µg/mL: 42 mm
[29]
  MIC: > 100 µg/mL

## C=C/C(C)=C/[C@H](C)C(=O)C[C@H](O)CC1CC(=O)NC(=O)C1 [Streptimidone]
[30]; benzene, ethyl acetate, acetone, ethanol
  Solubility: Soluble
[30]; water
  Solubility: insoluble
